According to patent US20240391940A1, “FUSED RING-CONTAINING COMPOUND, APPLICATION THEREOF, AND COMPOSITION CONTAINING SAME” (GenEros Biopharma Ltd., priority 2020, published 2024):
Several values for one entry are separate records, joined by “and”; a condition that tells them apart may be missing. Identical values can stand only once.

What was measured:
[1] = test system: IMQ-induced psoriasis mouse model; experiment: IMQ-induced psoriasis mouse model (PASI scoring); assay type: in vivo, Balb/c mice; design: key to skin thickening in psoriasis mice (score) / skin redness in psoriasis mice (score) / skin scaling in psoriasis mice (score): 0 = none to 4 = very severe, per sign; details: DEX 3 mpk PO QD
Procedure: Method: This experiment used a total of 19 mice. A natural skin observation control (n=1). 2 cm^2 of hair was shaved off the backs of […] on day 0, the stubble was removed with a mild depilatory cream, and the original skin was photographed. 62.5 mg of IMQ was applied to each of the mice. There was a mock group (n=6), a DEX (3 mg/kg, PO., qD) group (n=6), and a GEN1-284s (30 mg/kg, PO, qD) group (n=6). On the day of modeling, administration was performed in a volume of 100 μL/20 g body weight 4 h after IMQ application. The PASI scoring method was used to score the erythema, swelling and scaling on the skin of the mice. The experiment took a total of 6 days. The first day was set to day 0. IMQ application and administration were not performed on day 5. The mice were sacrificed with carbon dioxide at the end of the experiment.
The test animals were anesthetized with isoflurane. 2 cm^2 of hair was shaved off the backs of the mice, and the stubble was removed with a depilatory cream. IMQ application was performed for a total of 5 days, from day 0 to day 4. Scoring and IMQ application were performed every morning. Administration was performed in the afternoon
Desquamation (D): means epidermal cells flake off. The severity scores of skin lesions were as follows: • 0=none; this sign cannot be confirmed by careful observation • 1=mild; this sign can be confirmed but careful observation is required • 2=moderate; this sign is more visible and can be confirmed immediately • 3=severe; this sign is marked. • 4=very severe; this sign is very marked.
Induration I: 0—skin lesions are at the same level as normal skin; • 1—skin lesions are at slightly higher levels than normal skin surface; • 2—lesions moderately stick out and have round or slope-shaped borders; • 3—skin lesions are thick and markedly stick out; • 4—skin lesions are very thick and very markedly stick out.
Erythema E: • 0—no visible erythema; • 1—light red; • 2—red; • 3—dark red; • 4—the red is very dark

[2] = test system: LPS-induced production of TNF-α; experiment: LPS-induced TNF-α production in mice (plasma ELISA); assay type: in vivo; details: Balb/c mice; dexamethasone 3 mpk, LPS 1 mpk i.p. 0.5 h after administration, plasma 2 h after LPS
Procedure: Materials and method: A total of 18 mice were used in this experiment. The mice were divided into a MOCK group (n=6), a dexamethasone group (n=6), and a GEN1-284s 15 mpk group (n=6). LPS (1 mpk) was intraperitoneally injected 0.5 h after administration. The mice were sacrificed 2 h after the LPS injection, and blood samples were taken. The blood samples were left in EDTA-K2 anticoagulant tubes at room temperature for 20 min and centrifuged at 8000 rpm for 10 min. The plasma was separated and cryopreserved at −80° C. before analysis.
LPS (1 mpk) was intraperitoneally injected 0.5 h after administration. The mice were sacrificed 2 h after the LPS injection, and blood samples were taken. The blood samples were left in EDTA-K2 anticoagulant tubes at room temperature for 20 min and centrifuged at 8000 rpm for 10 min. The plasma was separated and cryopreserved at −80° C. before analysis.
The mice were tested for TNF-α level with ELISA kits, and the inhibitory effect of GEN1-284s on the TNF-α level was evaluated.
According to the instructions for use, a standard curve formula (y=0.0038x+0.1206, R^2=0.9956) was obtained and can be used to calculate detection values.

[3] = DAY 1, individual mice, listed as DEX
[4] = DAY 2, individual mice, listed as DEX
[5] = DAY 3, individual mice, listed as DEX
[6] = DAY 4, individual mice, listed as DEX
[7] = DAY 5, individual mice, listed as DEX

C[C@@H]1C[C@H]2[C@@H]3CCC4=CC(=O)C=C[C@]4(C)[C@@]3(F)[C@@H](O)C[C@]2(C)[C@@]1(O)C(=O)CO [dexamethasone, Dexamethasone, reference compound]
overall effect on the skin of psoriasis mice (score) ([1]; DAY 0, individual mice): 0
skin redness in psoriasis mice (score) ([1]; DAY 0, individual mice): 0
skin scaling in psoriasis mice (score) ([1]; DAY 0, individual mice): 0
skin thickening in psoriasis mice (score) ([1]; DAY 0, individual mice): 0
overall effect on the skin of psoriasis mice (score) [1, 3]: 1.167 (2×) and 0.5 and 1.333 (2×) and 0.8333
skin redness in psoriasis mice (score) [1, 3]: 0.6667 (2×) and 0.1667 and 0.3333 and 0.5 (2×)
skin scaling in psoriasis mice (score) [1, 3]: 0.5 and 0.3333 (2×) and 0.8333 (2×) and 0.1667
skin thickening in psoriasis mice (score) [1, 3]: 0 (5×) and 0.5
overall effect on the skin of psoriasis mice (score) [1, 4]: 1.333 and 1 and 0.5 and 0.8333 and 1.667 and 0.6667
skin redness in psoriasis mice (score) [1, 4]: 0.5 (2×) and 0.6667 (2×) and 0.1667 (2×)
skin scaling in psoriasis mice (score) [1, 4]: 0.8333 and 0.3333 and 0 (2×) and 0.6667 and 1
skin thickening in psoriasis mice (score) [1, 4]: 0 (5×) and 0.5
overall effect on the skin of psoriasis mice (score) [1, 5]: 2.5 and 3 and 1 and 2 (2×) and 1.667
skin redness in psoriasis mice (score) [1, 5]: 1.167 and 1 and 0.5 (2×) and 0.3333 and 0.6667
skin scaling in psoriasis mice (score) [1, 5]: 1.333 and 1.5 and 0.5 (2×) and 1 and 1.167
skin thickening in psoriasis mice (score) [1, 5]: 0 (2×) and 0.5 (4×)
overall effect on the skin of psoriasis mice (score) [1, 6]: 2.333 (2×) and 1.5 and 3.5 and 3.667 and 2.667
skin redness in psoriasis mice (score) [1, 6]: 0.6667 and 0.5 (2×) and 1.167 (2×) and 1.667
skin scaling in psoriasis mice (score) [1, 6]: 1.167 and 1 (2×) and 1.833 and 1.333 and 1.5
skin thickening in psoriasis mice (score) [1, 6]: 0.5 (5×) and 0
overall effect on the skin of psoriasis mice (score) [1, 7]: 3.333 and 2.5 and 3.667 and 2.833 (2×) and 3.5
skin redness in psoriasis mice (score) [1, 7]: 1.167 and 1 (2×) and 0.8333 and 0.6667 and 1.5
skin scaling in psoriasis mice (score) [1, 7]: 1.667 (2×) and 1.5 (2×) and 2.333 and 1.333
skin thickening in psoriasis mice (score) [1, 7]: 0.5 (5×) and 0
Inhibition rate against LPS-induced TNF-α [2]: 81%
